Results: US10954221B2, “GLP-1R agonists and uses thereof” (QILU REGOR THERAPEUTICS INC., priority 2019, dated 2021)

Experiments:
GLP1R [1] = target: T1, GLP1R (Homo sapiens, UniProt P43220); test: GLP1R cAMP assay (HTRF), HEK293/GLP-1R/CRE/Luc, Clone 4
Target sequence in this assay (P43220 24-463): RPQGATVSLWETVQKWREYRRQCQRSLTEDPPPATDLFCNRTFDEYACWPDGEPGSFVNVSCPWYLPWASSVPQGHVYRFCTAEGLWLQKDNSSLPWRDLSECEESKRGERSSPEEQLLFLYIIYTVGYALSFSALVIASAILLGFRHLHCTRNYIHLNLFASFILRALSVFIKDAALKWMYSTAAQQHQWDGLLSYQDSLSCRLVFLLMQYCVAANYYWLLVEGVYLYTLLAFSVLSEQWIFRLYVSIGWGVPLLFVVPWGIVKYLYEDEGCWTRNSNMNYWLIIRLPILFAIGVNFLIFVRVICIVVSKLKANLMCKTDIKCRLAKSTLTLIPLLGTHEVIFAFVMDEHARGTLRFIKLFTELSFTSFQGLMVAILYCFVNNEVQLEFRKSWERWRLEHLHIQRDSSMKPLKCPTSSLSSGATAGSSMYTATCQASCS

GLP1R [2] = target: T1, GLP1R; test: cAMP assay in CHO cells stably expressing hGLP-1R; format: cell-based; parameters: expressed in transfected cells; host or cells: CHO cells stably transfected; settings: CHO cells stably expressing hGLP-1R (Table 2), read-out: CHO cAMP stable EC50
Protocol: GLP-1R-mediated agonist activity was determined with a cell-based functional assay utilizing an HTRF (Homogeneous Time-Resolved Fluorescence) cAMP detection kit (cAMP Dynamic 2 Assay Kit; CisBio cat #62AM4PEC) that measures cAMP levels in the cell. The method is a competitive immunoassay between native cAMP produced by the cells and exogenous cAMP labeled with the dye d2. The tracer binding is visualized by a mAb anti-cAMP labeled with Cryptate. The specific signal (i.e., energy transfer) is inversely proportional to the concentration of cAMP in either standard or experimental sample.
Following the 30 minute incubation, 5 μL of labeled d2 cAMP and 5 μL of anti-cAMP antibody (both diluted 1:20 in cell lysis buffer; as described in the manufacturer's assay protocol) were added to each well of the assay plate. […] Raw data were converted to nM cAMP by interpolation from a cAMP standard curve (as described in the manufacturer's assay protocol) and the percent effect was determined relative to a saturating concentration of the full agonist GLP-17-37 (10 nM) included on each plate. EC50 determinations were made from agonist dose-response curves analyzed with a curve fitting program using a 4-parameter logistic dose response equation. […]
Target sequence in this assay (P43220 24-463): as above

GLP1R [3] = target: T1, GLP1R; test: β-Arrestin-mediated GLP1R internalization assay (PathHunter U2OS cells); format: cell-based; parameters: host or cells: PathHunter engineered U2OS cells; settings: averaged Bmax where applicable, Percentage of Control GLP-1 (7-37), top 10 μM, 180 min
Source text: A similar assay can also be used to assess the extent of signal attenuation due to GLP-1R internalization (the Internalization Assay). In this assay, activated GLP1R Internalization cells were engineered to co-express an untagged GLP1R, Enzyme Acceptor (EA) tagged β-Arrestin, and a ProLink™ (PK) tag localized to the endosomes. Activation of the GLP1R induces β-Arrestin recruitment, which leads to internalization of the Receptor/Arrestin-EA complex in PK-tagged endosomes. This forces complementation of the two β-galactosidase enzyme fragments (EA and PK) to form a functional enzyme that hydrolyzes substrate to generate a chemiluminescent signal.
Frozen cells were quickly thawed and 10 mL of cell plating medium (provided by the kit) was added to thawed cells. Cells were stored in a 37° C. incubator and kept for approximately 48 hours until ready for the assay.
Reference and test compounds were dissolved in 100% DMSO. […] 5 μL of this solution was added to 20 μL cell medium in assay plate for a final top concentration of 10 μM. Plates were incubated at 37° C. for 180 min.
Following 180 min incubation, detection reagents were made up by combining 1 part Galacton Star Substrate with 5 parts Emerald II™ Solution, and 19 parts of PathHunter Cell Assay Buffer, respectively. 12.5 μL detection reagent was added to each well. The plates were then incubated at room temperature for 60 min. Plates were then read on Envision for 0.1 sec/well.
EC50 determinations were made from agonist dose-response curves analyzed with a curve fitting program using a 4-parameter logistic dose response equation.
Target sequence in this assay (P43220 24-463): as above
Target sequence in this assay (P32121 whole entry partner): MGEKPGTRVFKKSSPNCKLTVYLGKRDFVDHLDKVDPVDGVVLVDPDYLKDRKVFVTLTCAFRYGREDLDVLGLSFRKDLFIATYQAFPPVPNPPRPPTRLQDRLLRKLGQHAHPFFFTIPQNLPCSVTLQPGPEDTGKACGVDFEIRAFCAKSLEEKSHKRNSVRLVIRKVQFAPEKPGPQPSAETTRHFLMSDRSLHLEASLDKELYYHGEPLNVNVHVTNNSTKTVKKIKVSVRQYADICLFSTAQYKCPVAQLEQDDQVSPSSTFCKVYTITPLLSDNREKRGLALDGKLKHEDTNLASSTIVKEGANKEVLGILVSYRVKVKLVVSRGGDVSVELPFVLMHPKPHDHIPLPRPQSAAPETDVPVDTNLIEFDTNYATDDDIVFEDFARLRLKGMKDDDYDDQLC

GLP1R [4] = target: T1, GLP1R; parameters: Emax: dose or concentration left out as unconfirmed; settings: CHO-K1, […], read-out: β-arrestin recruitment Bmax (%)
Target sequence in this assay (P43220 24-463): as the sequence (P43220 24-463) above
Target sequence in this assay (P32121 whole entry partner): as the sequence (P32121 whole entry partner) above

Row | Compound | EC50 (GLP1R [1]) | EC50 (GLP1R [2]) | β-arrestin internalization Bmax (POC) (GLP1R [3]) | Emax (GLP1R [4])
1 | O=C(O)c1ccc2nn(Cc3ccc(-c4cccc(OCc5ccc(Cl)cc5F)n4)cc3F)c(CC3CCO3)c2c1 (stereo not drawn) [Compound 326, 2-(4-(6-(4-chloro-2-fluorobenzyloxy)pyridin-2-yl)-2-fluorobenzyl)-3-(oxetan-2-ylmethyl)-2H-indazole-S-carboxylic acid] | 15 to 150 nM | > 1000 nM |  | 
2 | N#Cc1ccc(COc2cccc(-c3cc(F)c(Cc4nc5ccc(C(=O)O)nc5n4C[C@@H]4CCO4)cc3F)n2)c(F)c1 [Compound 292, (S)-2-(4-(6-((4-cyano-2-fluorobenzyl)oxy)pyridin-2-yl)-2,5-difluorobenzyl)-3-(oxetan-2-ylmethyl)-3H-imidazo[4,5-b]pyridine-5-carboxylic acid] | < 15 nM | < 15 nM | 29.6 POC | 42.2 ± 2.68%
3 | O=C(O)c1ccc2nc(Cc3cc(F)c(-c4cccc(OCc5ccc(Cl)cn5)n4)cc3F)n(C[C@@H]3CCO3)c2n1 [Compound 296, (S)-2-(4-(6-((5-chloropyridin-2-yl)methoxy)pyridin-2-yl)-2,5-difluorobenzyl)-3-(oxetan-2-ylmethyl)-3H-imidazo[4,5-b]pyridine-5-carboxylic acid] | < 15 nM | < 15 nM |  | 
4 | N#Cc1cnc(COc2cccc(-c3cc(F)c(Cc4nc5ccc(C(=O)O)nc5n4C[C@@H]4CCO4)cc3F)n2)c(F)c1 [Compound 278, (S)-2-(4-(6-((5-cyano-3-fluoropyridin-2-yl)methoxy)pyridin-2-yl)-2,5-difluorobenzyl)-3-(oxetan-2-ylmethyl)-3H-imidazo[4,5-b]pyridine-5-carboxylic acid] | < 15 nM | < 15 nM | 36.5 POC | 36.2 ± 5.56%
5 | O=C(O)c1ccc2nc(Cc3ccc(-c4nccc(OCc5ccc(Cl)cc5F)n4)cc3F)n(C[C@@H]3CCO3)c2c1F [Compound 311, (S)-2-(4-(4-((4-chloro-2-fluorobenzyl)oxy)pyrimidin-2-yl)-2-fluorobenzyl)-7-fluoro-1-(oxetan-2-ylmethyl)-1H-benzo[d]imidazole-6-carboxylic acid] | < 15 nM | < 15 nM | 26.7 ± 4.53 POC | 38.8 ± 7.09%
6 | O=C(O)c1ccc2nc(Cc3ccc(-c4ncc(F)c(OCc5ncc(Cl)cc5F)n4)cc3F)n(C[C@@H]3CCO3)c2n1 [Compound 294, (S)-2-(4-(4-((5-chloro-3-fluoropyridin-2-yl)methoxy)-5-fluoropyrimidin-2-yl)-2-fluorobenzyl)-3-(oxetan-2-ylmethyl)-3H-imidazo[4,5-b]pyridine-5-carboxylic acid] | < 15 nM | 15 to 150 nM |  | 
7 | N#Cc1ccc(COc2cccc(-c3cc(F)c(Cc4nc5ccc(C(=O)O)nc5n4C[C@@H]4CCO4)cc3F)n2)nc1 [Compound 279, (S)-2-(4-(6-((5-cyanopyridin-2-yl)methoxy)pyridin-2-yl)-2,5-difluorobenzyl)-3-(oxetan-2-ylmethyl)-3H-imidazo[4,5-b]pyridine-5-carboxylic acid] | < 15 nM | < 15 nM |  | 
8 | N#Cc1ccc(COc2cccc(-c3ccc(Cc4nc5ccc(C(=O)O)nc5n4C[C@@H]4CCO4)c(F)c3)n2)nc1 [Compound 288, (S)-2-(4-(6-((5-cyanopyridin-2-yl)methoxy)pyridin-2-yl)-2-fluorobenzyl)-3-(oxetan-2-ylmethyl)-3H-imidazo[4,5-b]pyridine-5-carboxylic acid] | < 15 nM | 15 to 150 nM |  | 
9 | N#Cc1ccc(COc2nc(-c3ccc(Cc4nc5ccc(C(=O)O)c(F)c5n4C[C@@H]4CCO4)c(F)c3)ncc2F)c(F)c1 [Compound 312, (S)-2-(4-(4-((4-cyano-2-fluorobenzyl)oxy)-5-fluoropyrimidin-2-yl)-2-fluorobenzyl)-7-fluoro-1-(oxetan-2-ylmethyl)-1H-benzo[d]imidazole-6-carboxylic acid] | < 15 nM | < 15 nM | 45.2 POC | 33.4 ± 2.13%
10 | N#Cc1cnc(COc2nc(-c3ccc(Cc4nc5ccc(C(=O)O)nc5n4C[C@@H]4CCO4)c(F)c3)ncc2F)c(F)c1 [Compound 301, (S)-2-(4-(4-((5-cyano-3-fluoropyridin-2-yl)methoxy)-5-fluoropyrimidin-2-yl)-2-fluorobenzyl)-3-(oxetan-2-ylmethyl)-3H-imidazo[4,5-b]pyridine-5-carboxylic acid] | < 15 nM | 15 to 150 nM |  | 
11 | N#Cc1ccc(COc2nc(-c3ccc(Cc4nc5ccc(C(=O)O)nc5n4C[C@@H]4CCO4)c(F)c3)ncc2F)c(F)c1 [Compound 263, (S)-2-(4-(4-(4-cyano-2-fluorobenzyloxy)-5-fluoropyrimidin-2-yl)-2-fluorobenzyl)-3-(oxetan-2-ylmethyl)-3H-imidazo[4,5-b]pyridine-5-carboxylic acid] | < 15 nM | < 15 nM |  | 18.9%
12 | O=C(O)c1ccc2nc(Cc3cc(F)c(-c4ncc(F)c(OCc5ccc(Cl)cn5)n4)cc3F)n(C[C@@H]3CCO3)c2n1 [Compound 300, (S)-2-(4-(4-((5-chloropyridin-2-yl)methoxy)-5-fluoropyrimidin-2-yl)-2,5-difluorobenzyl)-3-(oxetan-2-ylmethyl)-3H-imidazo[4,5-b]pyridine-5-carboxylic acid] | < 15 nM | 15 to 150 nM |  | 
13 | N#Cc1ccc(COc2nc(-c3cc(F)c(Cc4nc5ccc(C(=O)O)nc5n4C[C@@H]4CCO4)cc3F)ncc2F)nc1 [Compound 280, (S)-2-(4-(4-((5-cyanopyridin-2-yl)methoxy)-5-fluoropyrimidin-2-yl)-2,5-difluorobenzyl)-3-(oxetan-2-ylmethyl)-3H-imidazo[4,5-b]pyridine-5-carboxylic acid] | < 15 nM | 15 to 150 nM |  | 
14 | O=C(O)c1ccc2nc(Cc3ccc(-c4cccc(OCc5ccc(Cl)cc5F)n4)cc3F)n(C[C@@H]3CCO3)c2n1 [Compound 287, (S)-2-(4-(6-((4-chloro-2-fluorobenzyl)oxy)pyridin-2-yl)-2-fluorobenzyl)-3-(oxetan-2-ylmethyl)-3H-imidazo[4,5-b]pyridine-5-carboxylic acid] |  | 15 to 150 nM |  | 
15 | N#Cc1ccc(COc2cccc(-c3ccn(Cc4nc5ccc(C(=O)O)c(F)c5n4C[C@@H]4CCO4)c(=O)c3)n2)c(F)c1 [Compound 322, (S)-2-((6-((4-cyano-2-fluorobenzyl)oxy)-2′-oxo-[2,4′-bipyridin]-1′(2′H)-yl)methyl)-7-fluoro-1-(oxetan-2-ylmethyl)-1H-benzo[d]imidazole-6-carboxylic acid] | < 15 nM | 15 to 150 nM |  | 
16 | O=C(O)c1ccc2nc(Cc3cc(F)c(-c4ncc(F)c(OCc5ncc(Cl)cc5F)n4)cc3F)n(C[C@@H]3CCO3)c2c1 [Compound 272, (S)-2-(4-(4-((5-chloro-3-fluoropyridin-2-yl)methoxy)-5-fluoropyrimidin-2-yl)-2,5-difluorobenzyl)-1-(oxetan-2-ylmethyl)-1H-benzo[d]imidazole-6-carboxylic acid] | < 15 nM | 15 to 150 nM |  | 
17 | N#Cc1ccc(COc2cccc(-c3ccc(Cc4nc5ccc(C(=O)O)c(F)c5n4C[C@@H]4CCO4)c(F)c3)n2)c(F)c1 [Compound 310, (S)-2-(4-(6-((4-cyano-2-fluorobenzyl)oxy)pyridin-2-yl)-2-fluorobenzyl)-7-fluoro-1-(oxetan-2-ylmethyl)-1H-benzo[d]imidazole-6-carboxylic acid] | < 15 nM | < 15 nM |  | 37.8%
18 | O=C(O)c1ccc2nc(Cc3cc(F)c(-c4cccc(OCc5ccc(F)cn5)n4)cc3F)n(C[C@@H]3CCO3)c2n1 [Compound 298, (S)-2-(2,5-difluoro-4-(6-((5-fluoropyridin-2-yl)methoxy)pyridin-2-yl)benzyl)-3-(oxetan-2-ylmethy)-3H-imidazo[4,5-b]pyridine-5-carboxylic acid] | < 15 nM | 15 to 150 nM |  | 
